Reference: patent US20190192458A1, “THERAPEUTIC/PROPHYLACTIC AGENT FOR GRAFT-VERSUS-HOST DISEASE, FIBROCYTE INVASION INHIBITOR, AND INHIBITOR AGAINST TEAR REDUCTION AND REDUCTION IN GOBLET CELLS” (KEIO UNIVERSITY, priority 2016, published 2019)

What was measured:
Type in all cases: in vivo, mouse
[1] = system: cGVHD model mice (B10.D2 to BALB/c bone marrow transplantation); test: Survival and change in weight of PBA-treated allogeneic bone marrow transplantation recipient mice; details: PBA 10 mg/kg i.p. once daily Day 10 to Day 27 after allogeneic bone marrow transplantation
Procedure: Bone marrow transplantation was performed on model mice of cGVHD (Zhang Y, McCormick L L, Desai S R, Wu C, Gilliam A C, Murine Sclerodermatous Graft-Versus-Host Disease, a Model for Human Scleroderma: Cutaneous Cytokines, Chemokines, and Immune Cell Activation. The Journal of Immunology, 2002; 168: 3088-3098). When a donor was a B10.D2 mouse and a recipient was a BALB/c mouse, bone marrow transplantation was allogeneic, producing a model mouse of cGVHD. […] Recipients were irradiated at 700 cGy before bone marrow transplantation to perform lethal irradiation with a Gammacel 137 Cs source (Hitachi Medical Corp.). The recipient mice were each administered via tail vein with a suspension containing 1×10^6 donor bone marrow cells and 2×10^6 donor spleen cells.
Bone marrow transplantation was performed as described in the above section “Bone marrow transplantation,” and the resulting allogeneic bone marrow transplantation recipient mice were divided into two groups. One group was treated with intraperitoneal injection of PBA (10 mg/kg) (Aldrich) while the other was treated with intraperitoneal injection of a solvent vehicle⋅phosphate buffered saline (PBS) (pH 7.4). […]
Statistical significance was determined by the Mann-Whitney U test (which tests difference between two groups that have no correspondence). […]

[2] = system: cGVHD target organs; test: Histological observation of cGVHD target organs (HE, Mallory, CD45 immunostaining, electron microscopy, PAS)
Procedure: (§1) Bone marrow transplantation was performed as described in the above section “Bone marrow transplantation,” and the resulting allogeneic bone marrow transplantation recipient mice were divided into two groups. One group was treated with intraperitoneal injection of PBA (10 mg/kg) (Aldrich) while the other was treated with intraperitoneal injection of a solvent vehicle⋅phosphate buffered saline (PBS) (pH 7.4). The allogeneic bone marrow transplantation recipients received once-daily administration of PBA or the solvent vehicle from Day 10 to Day 27 after bone marrow transplantation. They were sacrificed on Day 28 after bone marrow transplantation.
cGVHD-affected organs (exorbital lacrimal gland, proximal portion of the small intestine, dorsal skin, liver, salivary gland, lung, large intestine, and eyes) were analyzed herein.
The exorbital lacrimal gland, the proximal part of the small intestine, dorsal skin, the liver, the salivary gland, the lung, the large intestine, and the eyes were collected from transplant recipients at 3 or 4 weeks after bone marrow transplantation. Subsequently, these samples were fixed with 10% neutral buffered formalin, and then each embedded in paraffin. The resulting paraffin blocks were each cut into 7-μm thick sections, and then stained with • (1) hematoxylin and eosin; • (2) Malory trichrome staining (Hopwood J, Fixation and fixtative. In: Bancroft J D, Stevens A, eds., Theory and Practice of Histological Techniques, 4th ed, Edinburgh: Churchill-Livingstone, 1996:23-46; Anderson G, Gordon K, Tissue processing, microtomy and paraffin sections. In: Bancroft J D, Stevens A, eds. T. Theory and Practice of Histological Techniques, 4th ed, Edinburgh: Churchill-Livingstone, 1996:47-68); and • (3) antibody.
For immunohistochemical assay, paraffin was first removed, and antigens were then collected by either one of the following two antigen collecting methods. • (A) For staining sections with CD45 antibody (30-F11, BD Pharmingen), the sections were immersed in an antigen retrieval solution (Target Retrieval Solution; Dako), and then boiled for 10 minutes in a microwave oven. • (B) For multistaining with CD68 (FA-11, Abd Serotec) and CHOP (F-168, Santa Cruz Biotechnology, Inc.), sections were washed with an antigen retrieval solution (HistoVT One; Nacalai Tesque, Inc.), and then heated in a water bath at 90° C. for 40 minutes. Next, the sections were blocked with 10% normal goat blood serum, and antigens in the tissue sections were then allowed to react with the primary antibodies at 4° C. overnight. Subsequently, the sections were treated with fluorophore-labelled secondary antibodies at room temperature (for example, 1 to 30° C.) for 45 minutes, and then mounted with an anti-fading mounting medium (Fluorescent Mounting Medium; Dako).
Fluorescence images were captured under an LSM confocal microscope (Carl Zeiss). For counting CD45^+ cells, 5 randomly selected regions per section were photographed at a magnification of ×200, and the number of CD45^+ cells in each image was then determined. As secondary antibodies, used were goat anti-mouse IgG (H+L) secondary antibody conjugated with Alexa Fluor 488 (Molecular Probes) and goat anti-rat IgG (H+L) secondary antibody conjugated with Alexa Fluor 568 (Molecular Probes). For isotype controls, rat IgG2b, κ (eB149/10H5, eBioscience, Inc.), rat IgG2a (54447, R&D Systems, Inc.), and rabbit IgG (Cell Signaling Technology, Inc.) were used for CD45, CD68, and CHOP, respectively.
Transmission electron microscopy was performed in accordance with a standard protocol. Tissues were collected from a mouse lacrimal gland and small intestine, and immediately fixed with 2.5% glutaraldehyde in 0.1 M phosphate buffer (pH 7.4) at 4° C. for 4 hours, and then washed 3 times with 0.1 M phosphate buffer. Subsequently, the samples were fixed again with 2% osmium tetroxide, and dehydrated with a gradient series of ethanol and 100% propylene oxide, and then embedded in epoxy resin. […]

[3] = system: MCP-1, TNF-α, and IFN-γ in blood sera; test: ELISA of inflammation markers in blood sera; details: ELISA 28 days after bone marrow transplantation; PBA-treated vs vehicle-treated mice, n=4, P<0.05
Procedure: as §1
Blood samples were withdrawn from PBA-treated mice and vehicle-treated mice, and centrifuged at 4000 rpm for 10 minutes. The levels of MCP-1, tumor necrosis factor-α (TNF-α), and interferon-γ (IFN-γ) in the resulting blood sera were measured using ELISA kits (Becton Dickinson). These assays were performed according to the protocol recommended by manufacturer Becton Dickinson.

[4] = PBA-treated vs vehicle-treated eye, FIG. 4-1A

O=C(O)CCCc1ccccc1 [PBA, 4-phenyl-n-butyric acid]
% survival ([1]; vs vehicle (PBS), FIG. 2A, n=14, P<0.05): higher survival percentage
change in weight ([1]; vs vehicle, FIG. 2B, n=10, P<0.001): the vehicle-treated mouse group showed larger weight loss as compared with the PBA-treated mouse group
electron microscopy: hypertrophied endoplasmic reticula, cell fragments, damaged mitochondria, destroyed small villi, damaged adjacent tissues ([2]; PBA-treated lacrimal gland and small intestine vs vehicle-treated, FIG. 4-2D): not observed
goblet cells in conjunctiva epithelium (PAS staining) ([2]; PBA-treated vs vehicle-injected eye, n=5, P<0.001, FIG. 4-2F, 4-2G): more goblet cells
goblet cells in small intestine (PAS staining) ([2]; PBA-treated vs vehicle-injected small intestine, n=3, P<0.001, FIG. 4-2F, 4-2G): more goblet cells
conjunctiva epithelium thinning and damage (HE staining) [2, 4]: thinning and damage were observed in the vehicle-treated conjunctiva epithelium in contrast with the PBA-treated conjunctiva epithelium
meibomian gland (HE staining) [2, 4]: the meibomian gland of the vehicle-treated eye was decreased and contracted as compared with the PBA-treated meibomian gland
infiltration of inflammatory cells (HE staining) ([2]; PBA-treated vs vehicle-treated organs, FIG. 4-1A): inhibited
cGVHD-induced systemic fibrosis (Mallory staining) ([2]; PBA-treated vs vehicle-treated organs, FIG. 4-1C): substantially inhibited
numbers of inflammatory cells (CD45+ cells) ([2]; PBA-treated vs vehicle-treated organs, immunostaining and counting, n=3, FIG. 4-2E): considerably smaller
skin thickness, fat tissues, density of collagen bundles (HE staining) ([2]; PBA-treated vs vehicle-treated skin, FIG. 4-1A): the vehicle-treated skin became thickened, lost fat tissues, and increased the density of collagen bundles in contrast with the PBA-treated skin
intestinal villi of small and large intestines (HE staining) ([2]; PBA-treated vs vehicle-treated small and large intestines, FIG. 4-1A): not impaired
structures of the intestinal and conjunctival mucous membranes (PAS staining) ([2]; after systemic injection of PBA): remained intact
protein level of IFN-γ in blood sera [3]: lower protein levels
protein level of MCP-1 in blood sera [3]: lower protein levels
protein level of TNF-α in blood sera [3]: lower protein levels
